Experimental data: patent publication US20240132503A1, “SALT FORM AND CRYSTAL FORM OF PYRAZOLE SUBSTITUTED IMIDAZO[1,2- A]QUINOXALINE DERIVATIVE” (OCUMENSION THERAPEUTICS (SUZHOU) CO., LTD, priority 2021, published 2024)
Where two headings read alike, the source gives them in different places.

Assays:
[1] = Solid stability test of crystal form A (influencing factors and accelerated conditions; HPLC purity and XRPD); type: physicochemical
Experimental: All the stability samples were subjected to XRPD detection to detect changes in crystal forms.
About 10 mg of the crystal form was accurately weighed, put in a dry and clean glass bottle, spread into a thin layer, covered with aluminum foil with small pierced holes, and put under conditions of the influencing factor test and accelerated conditions. A sample under sunlight conditions (1200000 Lux visible light, and 200 W ultraviolet light) was put in a transparent glass bottle and fully exposed, and a sample used for XRPD detection was put separately.
After the sample was taken out by a time point, the glass bottle was covered with a lid, sealed with parafilm, and stored in a refrigerator at −20° C. During sample preparation, the sample was taken out of the refrigerator and recovered to room temperature, 10 mL of 80% ACN was added, and the sample was dissolved by ultrasonication for 2 minutes to obtain a solution at a concentration of about 1 mg/mL. A liquid phase was used for sample analysis, and the test result was compared with an initial test result on Day 0.
Preparation of a standard solution on Day 0: About 10 mg of the crystal form was weighed, put into a 10 mL volumetric flask, dissolved in 80% acetonitrile and diluted to the scale.
In addition, all the stability samples were subjected to the HPLC tests.

[2] = Pharmacokinetics in plasma and eye tissues of male SD rats after single administration of eye drop; type: in vivo; conditions: for half-life / AUC(0-t) / Cmax / Tmax / AUC(0-inf) / MRT inf / Kp / MRT last: rat, topical or ocular; for AUC(0-inf) / MRT inf: extrapolated; for MRT inf: read-out: MRT0-inf; for Kp: read-out: AUC ratio (tissue AUC0-last/plasma AUC0-last); for MRT last: read-out: MRT0-last
Experimental: Test purpose: to study pharmacokinetics of the compound in eye tissues of male SD rats after single administration of eye drop
Test material: SD rats (male, 7 to 10 weeks of age, WTLH/SLAC)
Test operation: In this test, 18 male SD rats were provided by Beijing Vital River Laboratory Animal Technology Co., Ltd., and were randomly divided into 6 groups (3 rats/group), and each group of animals were given […] (5 mg/mL for both eyes, 30 μL/eye) of OT202 eye drops during single administration. All animals were not fasted before administration.

[3] = 40° C., relative humidity 75%, opened, 1 months
[4] = 40° C., relative humidity 75%, opened, 2 months
[5] = 40° C., relative humidity 75%, opened, 3 months
[6] = 60° C., relative humidity 75%, opened, 1 month
[7] = 60° C., relative humidity 75%, opened, 2 months
[8] = Control group kept in the dark, wrapped with tin foil
[9] = High humidity (relative humidity 92.5%, opened), 1 week
[10] = High humidity (relative humidity 92.5%, opened), 2 week
[11] = High temperature (60° C., opened), 1 week
[12] = High temperature (60° C., opened), 2 week
[13] = Visible light + ultraviolet light (ICH condition), visible 1200000 lux·hrs
[14] = SD (Sprague-Dawley), male SD rats, single eye drop 5 mg/mL, 30 μL/eye, both eyes, Aqueous humor of anterior chamber
[15] = SD (Sprague-Dawley), male SD rats, single eye drop 5 mg/mL, 30 μL/eye, both eyes, Bulbar conjunctiva
[16] = SD (Sprague-Dawley), male SD rats, single eye drop 5 mg/mL, 30 μL/eye, both eyes, Cornea
[17] = SD (Sprague-Dawley), male SD rats, single eye drop 5 mg/mL, 30 μL/eye, both eyes, Plasma
[18] = SD (Sprague-Dawley), male SD rats, single eye drop 5 mg/mL, 30 μL/eye, both eyes, Upper and lower eyelids
[19] = male SD rats, single eye drop 5 mg/mL, 30 μL/eye, both eyes, Aqueous humor of anterior chamber
[20] = male SD rats, single eye drop 5 mg/mL, 30 μL/eye, both eyes, Bulbar conjunctiva
[21] = male SD rats, single eye drop 5 mg/mL, 30 μL/eye, both eyes, Cornea
[22] = male SD rats, single eye drop 5 mg/mL, 30 μL/eye, both eyes, Plasma
[23] = male SD rats, single eye drop 5 mg/mL, 30 μL/eye, both eyes, Upper and lower eyelids

c1cn2c(n1)c(Nc1ccc(N3CCOCC3)cc1)nc1ccc(-c3cn[nH]c3)cc12
Crystal form (XRPD) [1, 3]: Crystal form A
Purity (area %) [1, 3]: 99.12 area %
Crystal form (XRPD) [1, 4]: Crystal form A
Purity (area %) [1, 4]: 99.06 area %
Crystal form (XRPD) [1, 5]: Crystal form A
Purity (area %) [1, 5]: 99.04 area %
Crystal form (XRPD) [1, 6]: Crystal form A
Purity (area %) [1, 6]: 99.15 area %
Crystal form (XRPD) [1, 7]: Crystal form A
Purity (area %) [1, 7]: 99.03 area %
Crystal form (XRPD) [1, 8]: Crystal form A
Purity (area %) [1, 8]: 99.12 area %
Crystal form (XRPD) ([1]; Day 0): Crystal form A
Purity (area %) ([1]; Day 0): 99.05 area %
Crystal form (XRPD) [1, 9]: Crystal form A
Purity (area %) [1, 9]: 99.03 area %
Crystal form (XRPD) [1, 10]: Crystal form A
Purity (area %) [1, 10]: 99.11 area %
Crystal form (XRPD) [1, 11]: Crystal form A
Purity (area %) [1, 11]: 98.99 area %
Crystal form (XRPD) [1, 12]: Crystal form A
Purity (area %) [1, 12]: 99.10 area %
Crystal form (XRPD) [1, 13]: Crystal form A
Purity (area %) [1, 13]: 99.12 area %
change in purity and crystal form ([1]; all stability conditions (high temperature, high humidity and sunlight)): no significant change
chemical stability ([1]; conclusion in words): good chemical stability
half-life ([2]; SD (Sprague-Dawley), both eyes, male SD rats, single eye drop 5 mg/mL, 30 μL/eye, Aqueous humor of anterior chamber, sampling range 6-24 h): 12.3 h
half-life ([2]; SD (Sprague-Dawley), both eyes, male SD rats, single eye drop 5 mg/mL, 30 μL/eye, Bulbar conjunctiva, sampling range 1-24 h, linear regression coefficient of elimination phase less than 0.9): 5.12 h
half-life ([2]; SD (Sprague-Dawley), both eyes, male SD rats, single eye drop 5 mg/mL, 30 μL/eye, Cornea, sampling range 1-24 h): 4.84 h
half-life ([2]; SD (Sprague-Dawley), both eyes, male SD rats, single eye drop 5 mg/mL, 30 μL/eye, Plasma, sampling range 1-6 h, linear regression coefficient of elimination phase less than 0.9): 4.8 h
half-life ([2]; SD (Sprague-Dawley), both eyes, male SD rats, single eye drop 5 mg/mL, 30 μL/eye, Upper and lower eyelids, sampling range 1-24 h): 9.45 h
AUC(0-t) [2, 14]: 0.657 µM·h
Cmax [2, 14]: 560 nM
Tmax [2, 14]: 0.5 h
AUC(0-inf) [2, 14]: 0.711 µM·h
AUC(0-t) [2, 15]: 15.5 µM·h
Cmax [2, 15]: 4510 nM
Tmax [2, 15]: 0.5 h
AUC(0-inf) [2, 15]: 16.4 µM·h
AUC(0-t) [2, 16]: 2.53 µM·h
Cmax [2, 16]: 1590 nM
Tmax [2, 16]: 0.5 h
AUC(0-t) [2, 17]: 0.00532 µM·h
Cmax [2, 17]: 1.23 nM
Tmax [2, 17]: 1 h
AUC(0-inf) [2, 17]: 0.00956 µM·h
AUC(0-t) [2, 18]: 65.5 µM·h
Cmax [2, 18]: 10400 nM
Tmax [2, 18]: 0.5 h
pharmacokinetic features, including eye-to-blood ratio, tissue exposure ([2]; conclusion in words): good pharmacokinetic features
AUC0-inf/AUC0-last (%) [2, 19]: 108%
Tlast [2, 19]: 24.0 h
AUC0-inf/AUC0-last (%) [2, 20]: 106%
Tlast [2, 20]: 24.0 h
AUC0-inf/AUC0-last (%) [2, 21]: 102%
Tlast [2, 21]: 24.0 h
AUC0-inf/AUC0-last (%) [2, 22]: 180%
Tlast [2, 22]: 6.00 h
AUC0-inf/AUC0-last (%) [2, 23]: 122%
AUC ratio (tissue AUC0-last/plasma AUC0-last) [2, 23]: 12300
Tlast [2, 23]: 24.0 h
MRT inf [2, 19]: 6.27 h
Kp [2, 19]: 123
MRT last [2, 19]: 3.35 h
MRT inf [2, 20]: 6.73 h
Kp [2, 20]: 2910
MRT last [2, 20]: 5.28 h
AUC(0-inf) [2, 21]: 2.59 µM·h
MRT inf [2, 21]: 5.74 h
Kp [2, 21]: 476
MRT last [2, 21]: 5.05 h
MRT inf [2, 22]: 7.39 h
MRT last [2, 22]: 2.98 h
AUC(0-inf) [2, 23]: 80 µM·h
MRT inf [2, 23]: 13.7 h
MRT last [2, 23]: 8.4 h
